Data as given in patent US20220315624A1, “THIOSTREPTON ANALOGS AND METHODS OF MAKING AND USING SAME” (YALE UNIVERSITY, priority 2019, published 2022).
≈ marks a conversion by molar mass, not a printed value.

Tests used:
[1] = Aqueous solubility analysis in MOPS buffer; assay type: physicochemical; conditions: aqueous 10 mM MOPS buffer, thermodynamic from solid; after 24 hours in 10 mM aqueous MOPS buffer, pH 7.2
Experimental: A 2 dram vial was loaded with ˜0.5 mg of a thiostrepton derivative and suspended in ˜4 mL of aqueous 10 mM MOPS buffer (pKa 7.2). The suspension was stirred vigorously for 24 h to ensure equilibration, then filtered through a […] centrifuge filtration unit. A 3.0 mL aliquot was concentrated, and the dried residue was diluted with 0.30 mL of 1:1 1,4-dioxane/H2O (10× original concentration necessitated by detection limits). The total UV absorbance (200-300 nm) was measured in triplicate by UPLC runs with a photodiode array detector. A calibration curve for each compound was created using data points from 3 trials each of concentrations in 1:1 1,4-dioxane/H2O ranging from […]. These concentrations were plotted against their respective average absorbances. The experimental concentration of each compound was calculated by dividing the found μg/mL value by the residue concentration factor of 10 to yield the actual solubility value.

[2] = tested on: E. faecalis ATCC 29212 VSE; experiment: MIC broth microdilution; assay type: cell-based; conditions: Enterococcus faecalis, ATCC29212; E. faecalis ATCC 29212 VSE; CAMHB; read-out: MIC
Experimental: (§1) Twenty-four test agents were shipped to Micromyx and stored at −20° C. until assayed. The compounds were dissolved in 100% DMSO at 6.46 mg/mL prior to testing. Comparator drugs were supplied by Micromyx and were handled as described below:
(§2) The test organisms for the assay were recent clinical isolates or reference strains acquired from the American Type Culture Collection (ATCC; Manassas, Va.). Upon receipt, the isolates were streaked onto Trypticase Soy Agar II+5% sheep blood (TSAB). Colonies were harvested from the plates and a cell suspension was prepared in Trypticase Soy Broth containing cryoprotectant. Aliquots were then frozen at −80° C. Prior to the assay, the frozen seeds of all bacterial isolates to be tested were thawed and streaked for isolation onto TSAB (BD/BBL, Sparks, Md.; Lot No. 9011894), and were incubated overnight at 35° C.
(§3) The test medium for all isolates was cation-adjusted Mueller Hinton broth (CAMHB; BD/BBL; Lot No. 8190586). CAMHB (Cation Adjusted Mueller Hinton Broth) was supplemented with 3% (v/v) lysed horse blood (LHB; Hemostat, Dixon, Calif.; Lot No. 474990) for the testing of streptococci.
(§4) MIC values were determined using a broth microdilution method as recommended by CLSI. Automated liquid handlers (Multidrop 384, Labsystems, Helsinki, Finland; Biomek 2000 and Biomek F/X, Beckman Coulter, Fullerton Calif.) were used to conduct serial dilutions and make liquid transfers.
(§5) The wells of standard 96-well microdilution plates (Costar 3795, Corning Inc., Corning, N.Y.) were filled with 150 μL of the appropriate diluent in columns 2-12 on the Multidrop 384 (DMSO for the thiostrepton analogs, deionized H2O for vancomycin and ceftazidime). These plates were used to prepare the drug “mother plate” which provided the serial drug dilutions for the replicate “daughter plates”. The compounds (300 μL) were dispensed at 101× the highest concentration to be tested into the appropriate row of the “mother plate”. The Biomek 2000 was used to transfer 150 μL of each stock solution from the wells in Column 1 of the mother plate to make ten subsequent 2-fold serial dilutions. The wells of Column 12 contained no drug and served as the organism growth control wells. The daughter plates were loaded with 190 μL of test medium using the Multidrop 384.
(§6) The daughter plates were prepared on the Biomek F/X instrument which transferred […] of drug solution from each well of the mother plate to each corresponding well of each daughter plate in a single step. The wells of the daughter plates ultimately contained 190 μL of media, 2 μL of drug solution, and 10 μL of inoculum prepared as described below. The final concentration of DMSO (if used as a solvent) in the test well was 1%.
(§7) A standardized inoculum of each organism was prepared per CLSI methods. A suspension of organisms from a fresh plate was prepared in CAMHB to equal the turbidity of a 0.5 McFarland standard. The suspensions were diluted 1:20 in CAMHB, or in the case of streptococci CAMHB with LHB. The inoculum for each organism was dispensed into sterile reservoirs divided by length (Beckman Coulter), and the Biomek 2000 was used to inoculate the plates. Daughter plates were placed on the Biomek 2000 work surface reversed so that inoculation took place from low to high drug concentration. The Biomek 2000 delivered 10 μL of standardized inoculum into each well. These dilutions yielded a final cell concentration in the daughter plates of approximately 5.0×10^5 CFU/mL.
(§8) Plates were stacked 3 high, covered with a lid on the top plate, placed in plastic bags, and incubated at 35° C. for 16-20 hr for all organisms except streptococci which were incubated for 20-24 hr. Following incubation, the microplates were removed from the incubator and viewed from the bottom using a plate viewer. The MIC was read and recorded as the lowest concentration of drug that inhibited visible growth of the organism. […]

[3] = tested on: S. pneumoniae ATCC 49619 PISP; experiment: MIC broth microdilution; assay type: cell-based; conditions: Streptococcus pneumoniae, ATCC49619, 20 h; S. pneumoniae ATCC 49619 PISP; CAMHB with 3% lysed horse blood; read-out: MIC
Experimental: as §1, §2, §3, §4, §5, §6, §7, §8

E. coli ATCC 25922 = experiment: MIC broth microdilution; assay type: cell-based; conditions: Escherichia coli, ATCC25922; E. coli ATCC 25922; CAMHB; read-out: MIC
Experimental: as §1, §2, §3, §4, §5, §6, §7, §8

E. faecalis MMX 486 VRE = experiment: MIC broth microdilution; assay type: cell-based; conditions: Enterococcus faecalis; E. faecalis MMX 486 VRE; CAMHB; read-out: MIC
Experimental: as §1, §2, §3, §4, §5, §6, §7, §8

S. pyogenes ATCC 19615 = experiment: MIC broth microdilution; assay type: cell-based; conditions: Streptococcus pyogenes, ATCC19615, 20 h; S. pyogenes ATCC 19615; CAMHB with 3% lysed horse blood; read-out: MIC
Experimental: as §1, §2, §3, §4, §5, §6, §7, §8

E. faecium MMX 485 VRE = experiment: MIC broth microdilution; assay type: cell-based; conditions: Enterococcus faecium; E. faecium MMX 485 VRE; CAMHB; read-out: MIC
Experimental: as §1, §2, §3, §4, §5, §6, §7, §8

[4] = tested on: S. aureus ATCC 29213 MSSA; experiment: MIC broth microdilution; assay type: cell-based; conditions: Staphylococcus aureus; S. aureus ATCC 29213 MSSA; CAMHB; read-out: MIC
Experimental: as §1, §2, §3, §4, §5, §6, §7, §8

E. faecium MMX 708 VSE = experiment: MIC broth microdilution; assay type: cell-based; conditions: Enterococcus faecium, MMX708VSE; E. faecium MMX 708 VSE; CAMHB; read-out: MIC
Experimental: as §1, §2, §3, §4, §5, §6, §7, §8

S. aureus MMX 8088 MRSA = experiment: MIC broth microdilution; assay type: cell-based; conditions: Staphylococcus aureus; S. aureus MMX 8088 MRSA; CAMHB; read-out: MIC
Experimental: as §1, §2, §3, §4, §5, §6, §7, §8

S. aureus isolates = experiment: MIC broth microdilution, S. aureus isolates; assay type: cell-based; conditions: Staphylococcus aureus; across MSSA and MRSA isolates; read-out: MIC values against S. aureus isolates
Experimental: as §1, §2, §3, §4, §5, §6, §7, §8

[5] = Un-inoculated solubility control plate (drug precipitation); assay type: physicochemical
[6] = tested on: E. faecalis and E. faecium; experiment: MIC broth microdilution, summary over enterococci; assay type: cell-based; conditions: across the evaluated enterococci, VSE and VRE
Experimental: as §1, §2, §3, §4, §5, §6, §7, §8

Gram-positive cocci = experiment: MIC broth microdilution, overall summary; assay type: cell-based; conditions: summary of MIC testing
Experimental: as §1, §2, §3, §4, §5
The daughter plates were prepared on the Biomek F/X instrument which transferred […] of drug solution from each well of the mother plate to each corresponding well of each daughter plate in a single step. […]
as §8, with “Following incubation, the microplates were removed from the incubator and viewed from the bottom using a plate viewer.” left out

SMILES | solubility at 24 h [1] [µg/mL] | MIC [2] [µg/mL] | MIC [3] [µg/mL] | MIC (E. coli ATCC 25922) [µg/mL] | MIC (E. faecalis MMX 486 VRE) [µg/mL] | MIC (S. pyogenes ATCC 19615) [µg/mL] | MIC (E. faecium MMX 485 VRE) [µg/mL] | MIC [4] [µg/mL] | MIC (E. faecium MMX 708 VSE) [µg/mL] | MIC (S. aureus MMX 8088 MRSA) [µg/mL] | MIC (S. aureus isolates) [µg/mL] | Precipitation in CAMHB in LHB ([5]; at 64 μg/mL in CAMHB in LHB) | MIC values against E. faecalis and E. faecium [6] [µg/mL] | MIC ([6]; read-out: MIC values against E. faecalis and E. faecium) [µg/mL] | Activity among the evaluated analogs / against evaluated Gram-positive cocci (summary in words) (Gram-positive cocci) | Precipitation in CAMHB ([5]; at 64 μg/mL in CAMHB)
C=C(NC(=O)c1csc(C2=N[C@@H]3c4csc(n4)[C@H]4NC(=O)c5csc(n5)[C@H]([C@](C)(O)[C@@H](C)O)NC(=O)C5CSC(=N5)/C(=C/C)NC(=O)[C@H]([C@@H](C)O)NC(=O)c5csc(n5)[C@]3(CC2)NC(=O)[C@H](C)NC(=O)C(=C)NC(=O)[C@H](C)NC(=O)[C@H]([C@@H](C)CC)N[C@@H]2C=Cc3c([C@H](C)O)cc(nc3[C@H]2O)C(=O)O[C@@H]4C)n1)C(=O)NC(=CNC(=O)c1cccc(/C=N/O)c1)C(N)=O [RJS-17] | < 1 | 1 (≈ 0.547 µM) | 0.002 (≈ 0.00109 µM) | > 64 | 0.5 (≈ 0.274 µM) | 0.004 (≈ 0.00219 µM) | 0.5 (≈ 0.274 µM) | 0.5 (≈ 0.274 µM) | 0.5 (≈ 0.274 µM) | 0.5 (≈ 0.274 µM) | 0.25 to 0.5 (≈ 0.137 to 0.274 µM) | distinct precipitation |  |  |  | 
C=C(NC(=O)c1csc(C2=N[C@@H]3c4csc(n4)[C@H]4NC(=O)c5csc(n5)[C@H]([C@](C)(O)[C@@H](C)O)NC(=O)C5CSC(=N5)/C(=C/C)NC(=O)[C@H]([C@@H](C)O)NC(=O)c5csc(n5)[C@]3(CC2)NC(=O)[C@H](C)NC(=O)C(=C)NC(=O)[C@H](C)NC(=O)[C@H]([C@@H](C)CC)N[C@@H]2C=Cc3c([C@H](C)O)cc(nc3[C@H]2O)C(=O)O[C@@H]4C)n1)C(=O)NC(=CNC(=O)c1cccc(/C=N/OC)c1)C(N)=O [RJS-11] | < 1 | 0.5 (≈ 0.272 µM) | < 0.001 | > 64 | 0.25 (≈ 0.136 µM) | < 0.001 | 0.25 (≈ 0.136 µM) | 0.5 (≈ 0.272 µM) | 0.25 (≈ 0.136 µM) | 0.5 (≈ 0.272 µM) | 0.25 to 0.5 (≈ 0.136 to 0.272 µM) |  | 0.5 (≈ 0.272 µM) | 0.25 (≈ 0.136 µM) | most activity | distinct precipitation
C=C(NC(=O)c1csc(C2=N[C@@H]3c4csc(n4)[C@H]4NC(=O)c5csc(n5)[C@H]([C@](C)(O)[C@@H](C)O)NC(=O)C5CSC(=N5)/C(=C/C)NC(=O)[C@H]([C@@H](C)O)NC(=O)c5csc(n5)[C@]3(CC2)NC(=O)[C@H](C)NC(=O)C(=C)NC(=O)[C@H](C)NC(=O)[C@H]([C@@H](C)CC)N[C@@H]2C=Cc3c([C@H](C)O)cc(nc3[C@H]2O)C(=O)O[C@@H]4C)n1)C(=O)NC(=CNC(=O)c1cccc(/C=N/OCCO)c1)C(N)=O [RJS-14] | 1.4 (≈ 0.748 µM) | 0.5 (≈ 0.267 µM) | 0.004 (≈ 0.00214 µM) | > 64 | 0.5 (≈ 0.267 µM) | 0.004 (≈ 0.00214 µM) | 0.5 (≈ 0.267 µM) | 0.5 (≈ 0.267 µM) | 1 (≈ 0.534 µM) | 0.5 (≈ 0.267 µM) | 0.25 to 0.5 (≈ 0.134 to 0.267 µM) |  |  |  |  | 
